Experimental data taken from the NIST ThermoML archive (doi:10.1021/je0604481).

Assay: mn = molality of the nth substance listed, in mol/kg
Details: Liquid; for mass density: Constant-volume piezometry; for viscosity: Capillary tube (Ostwald / Ubbelohde) method

O=S(=O)([O-])[O-].[Mg+2] [magnesium sulfate] + O
Details	mass density [kg/m3]	viscosity [mPa·s]
288.57 K, 101 kPa, m1 = 2.224	1235.34	–
288.57 K, 101 kPa, m1 = 2.535	1263.36	–
291.15 K, 101 kPa, m1 = 0.084	1008.8	–
297.7 K, 101 kPa, m1 = 2.224	1231.87	–
297.7 K, 101 kPa, m1 = 2.535	1259.83	–
298.15 K, 100 kPa, m1 = 0.085	–	0.9407
298.15 K, 100 kPa, m1 = 0.255	–	1.055
298.15 K, 100 kPa, m1 = 0.437	–	1.184
298.15 K, 100 kPa, m1 = 0.722	–	1.442
298.15 K, 100 kPa, m1 = 0.923	–	1.651
298.15 K, 100 kPa, m1 = 1.824	–	3.137
298.15 K, 100 kPa, m1 = 2.291	–	4.414
298.15 K, 100 kPa, m1 = 2.623	–	5.789
298.15 K, 10000 kPa, m1 = 0.085	–	0.94
298.15 K, 10000 kPa, m1 = 0.255	–	1.054
298.15 K, 10000 kPa, m1 = 0.437	–	1.184
298.15 K, 10000 kPa, m1 = 0.722	–	1.443
298.15 K, 10000 kPa, m1 = 0.923	–	1.653
298.15 K, 10000 kPa, m1 = 1.824	–	3.138
298.15 K, 10000 kPa, m1 = 2.291	–	4.415
298.15 K, 10000 kPa, m1 = 2.623	–	5.79
298.15 K, 30000 kPa, m1 = 0.085	–	0.9415
298.15 K, 30000 kPa, m1 = 0.255	–	1.056
298.15 K, 30000 kPa, m1 = 0.437	–	1.185
298.15 K, 30000 kPa, m1 = 0.722	–	1.445
298.15 K, 30000 kPa, m1 = 0.923	–	1.655
298.15 K, 30000 kPa, m1 = 1.824	–	3.14
298.15 K, 30000 kPa, m1 = 2.291	–	4.417
298.15 K, 30000 kPa, m1 = 2.623	–	5.792
299.67 K, 2040 kPa, m1 = 2.224	1231.7	–
299.67 K, 7179 kPa, m1 = 2.224	1233.3	–
299.67 K, 16830 kPa, m1 = 2.224	1236.3	–
299.67 K, 22550 kPa, m1 = 2.224	1238.2	–
299.67 K, 29600 kPa, m1 = 2.224	1240.3	–
303.03 K, 101 kPa, m1 = 0.469	1050.08	–
303.15 K, 101 kPa, m1 = 0.841	1090.98	–
308.15 K, 100 kPa, m1 = 0.085	–	0.761
308.15 K, 100 kPa, m1 = 0.255	–	0.8459
308.15 K, 100 kPa, m1 = 0.437	–	0.9437
308.15 K, 100 kPa, m1 = 0.722	–	1.151
308.15 K, 100 kPa, m1 = 0.923	–	1.305
308.15 K, 100 kPa, m1 = 1.824	–	2.415
308.15 K, 100 kPa, m1 = 2.291	–	3.374
308.15 K, 100 kPa, m1 = 2.623	–	4.352
308.15 K, 10000 kPa, m1 = 0.085	–	0.7618
308.15 K, 10000 kPa, m1 = 0.255	–	0.8466
308.15 K, 10000 kPa, m1 = 0.437	–	0.946
308.15 K, 10000 kPa, m1 = 0.722	–	1.153
308.15 K, 10000 kPa, m1 = 0.923	–	1.305
308.15 K, 10000 kPa, m1 = 1.824	–	2.418
308.15 K, 10000 kPa, m1 = 2.291	–	3.376
308.15 K, 10000 kPa, m1 = 2.623	–	4.355
308.15 K, 30000 kPa, m1 = 0.085	–	0.7645
308.15 K, 30000 kPa, m1 = 0.255	–	0.8495
308.15 K, 30000 kPa, m1 = 0.437	–	0.9486
308.15 K, 30000 kPa, m1 = 0.722	–	1.156
308.15 K, 30000 kPa, m1 = 0.923	–	1.309
308.15 K, 30000 kPa, m1 = 1.824	–	2.422
308.15 K, 30000 kPa, m1 = 2.291	–	3.348
308.15 K, 30000 kPa, m1 = 2.623	–	4.364
308.6 K, 101 kPa, m1 = 0.261	1024.48	–
310.15 K, 101 kPa, m1 = 2.224	1226.56	–
310.15 K, 101 kPa, m1 = 2.535	1254.38	–
314.98 K, 2157 kPa, m1 = 2.535	1252.7	–
314.98 K, 8159 kPa, m1 = 2.535	1254.5	–
314.98 K, 15690 kPa, m1 = 2.535	1256.7	–
314.98 K, 25910 kPa, m1 = 2.535	1259.9	–
314.98 K, 29800 kPa, m1 = 2.535	1261	–
323.05 K, 2197 kPa, m1 = 2.224	1221.5	–
323.05 K, 10120 kPa, m1 = 2.224	1224	–
323.05 K, 19850 kPa, m1 = 2.224	1227	–
323.05 K, 26300 kPa, m1 = 2.224	1229.1	–
323.05 K, 30500 kPa, m1 = 2.224	1230.3	–
323.15 K, 100 kPa, m1 = 0.085	–	0.5785
323.15 K, 100 kPa, m1 = 0.255	–	0.6403
323.15 K, 100 kPa, m1 = 0.437	–	0.7163
323.15 K, 100 kPa, m1 = 0.722	–	0.8612
323.15 K, 100 kPa, m1 = 0.923	–	0.9738
323.15 K, 100 kPa, m1 = 1.824	–	1.744
323.15 K, 100 kPa, m1 = 2.291	–	2.373
323.15 K, 100 kPa, m1 = 2.623	–	2.997
323.15 K, 101 kPa, m1 = 0.084	998.05	–
323.15 K, 101 kPa, m1 = 0.261	1018.3	–
323.15 K, 101 kPa, m1 = 0.469	1041.45	–
323.15 K, 101 kPa, m1 = 0.841	1082.67	–
323.15 K, 10000 kPa, m1 = 0.085	–	0.5809
323.15 K, 10000 kPa, m1 = 0.255	–	0.6431
323.15 K, 10000 kPa, m1 = 0.437	–	0.7198
323.15 K, 10000 kPa, m1 = 0.722	–	0.8651
323.15 K, 10000 kPa, m1 = 0.923	–	0.9781
323.15 K, 10000 kPa, m1 = 1.824	–	1.751
323.15 K, 10000 kPa, m1 = 2.291	–	2.382
323.15 K, 10000 kPa, m1 = 2.623	–	3.009
323.15 K, 30000 kPa, m1 = 0.085	–	0.5856
323.15 K, 30000 kPa, m1 = 0.255	–	0.648
323.15 K, 30000 kPa, m1 = 0.437	–	0.7256
323.15 K, 30000 kPa, m1 = 0.722	–	0.8714
323.15 K, 30000 kPa, m1 = 0.923	–	0.9853
323.15 K, 30000 kPa, m1 = 1.824	–	1.764
323.15 K, 30000 kPa, m1 = 2.291	–	2.4
323.15 K, 30000 kPa, m1 = 2.623	–	3.031
324.35 K, 101 kPa, m1 = 2.224	1219.96	–
324.35 K, 101 kPa, m1 = 2.535	1247.46	–
340.25 K, 101 kPa, m1 = 2.224	1211.6	–
340.25 K, 101 kPa, m1 = 2.535	1238.93	–
348.13 K, 1549 kPa, m1 = 2.535	1235.1	–
348.13 K, 9807 kPa, m1 = 2.535	1237.7	–
348.13 K, 14220 kPa, m1 = 2.535	1238.9	–
348.13 K, 23810 kPa, m1 = 2.535	1241.9	–
348.13 K, 30020 kPa, m1 = 2.535	1243.8	–
348.15 K, 100 kPa, m1 = 0.437	–	0.491
